In brackets after ≈: the same amount, converted by molar mass. Several values for one entry are separate records, joined by “and”; a condition that tells them apart may be missing. Equal values may be shown once.
Assays:
[1] = (§1) Compound was tested on serum cholesterol levels in marmosets after 7 days at intravenous 0.11 (mg/kg) dose in 6 animals; format: functional, Callitrichinae
[2] = Compound was tested on serum cholesterol levels in marmosets after 3 days at intravenous 0.33 (mg/kg) dose in 6 animals; format: functional, Callitrichinae
[3] = Compound was tested on serum cholesterol levels in marmosets after 7 days at 1(mg/kg/day) intravenous administration in 8 animals; format: functional, Callitrichinae
[4] = Compound was tested on serum cholesterol levels in marmosets after 2 days at intravenous 1 (mg/kg) dose in 6 animals; format: functional, Callitrichinae
[5] = test system: Aspergillus niger; assay: Compound was tested for an antifungal whole cell assay to obtain minimum inhibitory concentration against Aspergillus niger 48238; format: functional
[6] = test system: Rattus norvegicus; assay: Tested for inhibition of cholesterol biosynthesis by intravenous administration to rats; format: functional
[7] = test system: Candida albicans; assay: Compound was tested for an antifungal whole cell assay to obtain minimum inhibitory concentration against Candida albicans C316; format: functional
[8] = as §1; format: functional, Callitrichinae; remark: listed apart in the source
[9] = test system: Cryptococcus neoformans; assay: Compound was tested for an antifungal whole cell assay to obtain minimum inhibitory concentration against Cryptococcus neoformans 2867E; format: functional
[10] = biological target: T1, Squalene synthase (Rattus norvegicus, UniProt Q02769); assay: Inhibition of juvenile male rat liver microsomal squalene synthase
T1 sequence (Q02769 whole entry): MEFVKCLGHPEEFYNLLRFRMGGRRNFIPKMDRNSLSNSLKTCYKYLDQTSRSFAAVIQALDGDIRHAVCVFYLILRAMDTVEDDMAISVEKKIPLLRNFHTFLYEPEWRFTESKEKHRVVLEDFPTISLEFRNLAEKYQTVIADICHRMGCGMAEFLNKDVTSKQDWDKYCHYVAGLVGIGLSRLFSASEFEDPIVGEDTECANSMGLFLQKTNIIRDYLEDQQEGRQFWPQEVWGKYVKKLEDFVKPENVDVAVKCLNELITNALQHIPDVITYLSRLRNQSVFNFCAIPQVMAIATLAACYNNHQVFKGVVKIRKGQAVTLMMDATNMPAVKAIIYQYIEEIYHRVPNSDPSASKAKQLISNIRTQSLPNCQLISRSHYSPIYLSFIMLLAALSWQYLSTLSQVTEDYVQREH

[11] = Compound was tested on serum cholesterol levels in marmosets after 7 days at 1(mg/kg/day) intravenous administration in 6 animals; format: functional, Callitrichinae
[12] = Aspergillus niger, read-out: MIC
[13] = Candida albicans, read-out: MIC
[14] = Cryptococcus neoformans, read-out: MIC

SMILES	MIC [5, 12] [mg/L]	MIC [7, 13] [mg/L]	MIC [9, 14] [mg/L]	IC50 [10] [µM]	further results
CC(=O)O[C@@H](C(C)CC[C@]12O[C@H](C(=O)O)[C@@](O)(C(=O)O)[C@](C(=O)O)(O1)[C@H](O)[C@H]2O)[C@@H](C)Cc1ccccc1 (stereo not given in full)	125 (≈ 231 µM)	125 (≈ 231 µM)	125 (≈ 231 µM)		
CC[C@H](C)C[C@H](C)CCC(=O)O[C@@H]1[C@@H](O)[C@@]2(CCC(C)[C@H](OC(C)=O)[C@@H](C)Cc3ccccc3)O[C@H](C(=O)O)[C@@](O)(C(=O)O)[C@]1(C(=O)O)O2 (stereo in doubt; 2d)				0.003	MIC [5]: 8 mg/L (≈ 11.5 µM); MIC [7]: 16 mg/L (≈ 23 µM); MIC [9]: 0.5 mg/L (≈ 0.72 µM)
CC[C@H](C)C[C@H](C)CCC(=O)O[C@@H]1[C@@H](O)[C@@]2(C/C=C(\C)[C@H](OC(C)=O)[C@@H](C)Cc3ccccc3)O[C@H](C(=O)O)[C@@](O)(C(=O)O)[C@]1(C(=O)O)O2	31 (≈ 44.7 µM)	125 (≈ 180 µM)	8 (≈ 11.5 µM)	0.022	
C/C(=C\[C@@H](C)Cc1ccccc1)CC[C@]12O[C@H](C(=O)O)[C@@](O)(C(=O)O)[C@](C(=O)O)(O1)[C@H](O)[C@H]2O				0.2	
C=C(CC[C@]12O[C@H](C(=O)O)[C@@](O)(C(=O)O)[C@](C(=O)O)(O1)[C@H](O)[C@H]2O)[C@H](OC(C)=O)[C@@H](C)Cc1ccccc1	> 125	> 125	> 125		Cholesterol reduction [11]: 56%
CC[C@H](C)C[C@H](C)CCC(=O)O[C@@H]1[C@@H](O)[C@@]2(CCC(C)[C@H](O)[C@@H](C)Cc3ccccc3)O[C@H](C(=O)O)[C@@](O)(C(=O)O)[C@]1(C(=O)O)O2 (stereo not given in full)	31 (≈ 47.5 µM)	125 (≈ 192 µM)	8 (≈ 12.3 µM)		
CC[C@H](C)C[C@H](C)/C=C/C(=O)O[C@@H]1[C@@H](O)[C@@]2(C/C=C(\C)CC(C)Cc3ccccc3)O[C@H](C(=O)O)[C@@](O)(C(=O)O)[C@]1(C(=O)O)O2 (single isomer, unassigned)	31 (≈ 49 µM)	31 (≈ 49 µM)	2 (≈ 3.16 µM)	0.065	
CC[C@H](C)C[C@H](C)CCC(=O)O[C@@H]1[C@@H](O)[C@@]2(CCC(C)[C@H](OC(C)=O)[C@@H](C)Cc3ccccc3)O[C@H](C(=O)O)[C@@](O)(C(=O)O)[C@]1(C(=O)O)O2 (stereo in doubt; 2f)				0.165	MIC [5]: 125 mg/L (≈ 180 µM); MIC [7]: 125 mg/L (≈ 180 µM); MIC [9]: 4 mg/L (≈ 5.76 µM)
C=C(CC[C@]12O[C@H](C(=O)O)[C@@](O)(C(=O)O)[C@](C(=O)O)(O1)[C@H](O)[C@H]2O)[C@H](O)[C@@H](C)Cc1ccccc1	62 (≈ 125 µM)	62 (≈ 125 µM)	62 (≈ 125 µM)	0.252	
CC(CC[C@]12O[C@H](C(=O)O)[C@@](O)(C(=O)O)[C@](C(=O)O)(O1)[C@H](O)[C@H]2O)C[C@@H](C)Cc1ccccc1 (stereo not given in full)	125 (≈ 259 µM)	125 (≈ 259 µM)	125 (≈ 259 µM)	0.415	

More lines, main results first:

MIC [5, 12] [mg/L]	MIC [7, 13] [mg/L]	MIC [9, 14] [mg/L]	IC50 [10] [µM]	SMILES	further results
16 (≈ 23.2 µM)	8 (≈ 11.6 µM)	0.5 (≈ 0.724 µM)		C=C(CC[C@]12O[C@H](C(=O)O)[C@@](O)(C(=O)O)[C@](C(=O)O)(O1)[C@H](OC(=O)/C=C/[C@@H](C)C[C@@H](C)CC)[C@H]2O)[C@H](OC(C)=O)[C@@H](C)Cc1ccccc1	Cholesterol reduction [1]: 37% and 41%; Cholesterol reduction [2]: 53% and 63% and 62%; Cholesterol reduction [3]: 86%; Cholesterol reduction [4]: 47% and 53% and 60%; ED50 [6]: 0.1 mg/kg; Cholesterol reduction [8]: 39%
1 (≈ 1.44 µM)	8 (≈ 11.5 µM)	0.1 (≈ 0.144 µM)	0.013	C=C(CC[C@]12O[C@H](C(=O)O)[C@@](O)(C(=O)O)[C@](C(=O)O)(O1)[C@H](OC(=O)CC[C@@H](C)C[C@@H](C)CC)[C@H]2O)[C@H](OC(C)=O)[C@@H](C)Cc1ccccc1	Cholesterol reduction [11]: 72%
16 (≈ 24.7 µM)	125 (≈ 193 µM)	1 (≈ 1.54 µM)		C=C(CC[C@]12O[C@H](C(=O)O)[C@@](O)(C(=O)O)[C@](C(=O)O)(O1)[C@H](OC(=O)/C=C/[C@@H](C)C[C@@H](C)CC)[C@H]2O)[C@H](O)[C@@H](C)Cc1ccccc1	Cholesterol reduction [11]: 59%
16 (≈ 25.3 µM)	31 (≈ 49 µM)	4 (≈ 6.32 µM)	0.032	CC[C@H](C)C[C@H](C)/C=C/C(=O)O[C@@H]1[C@@H](O)[C@@]2(CC/C(C)=C/[C@@H](C)Cc3ccccc3)O[C@H](C(=O)O)[C@@](O)(C(=O)O)[C@]1(C(=O)O)O2	
16 (≈ 25.1 µM)	31 (≈ 48.7 µM)	1 (≈ 1.57 µM)		CC[C@H](C)C[C@H](C)CCC(=O)O[C@@H]1[C@@H](O)[C@@]2(CCC(C)C[C@@H](C)Cc3ccccc3)O[C@H](C(=O)O)[C@@](O)(C(=O)O)[C@]1(C(=O)O)O2 (stereo not given in full)	
